Assay results published in BindingDB's records for patent US20250122174 (Shenzhen Yuanli Shenwan Innovative Medicine, 2025).

Each compound was assayed against Mitogen-activated protein kinase kinase kinase kinase 1 (Homo sapiens, UniProt Q92918) (assay: HPK1 Inhibition Assay).
Method: A stock solution of 10 mM test compound was prepared in DMSO. The compound was prepared by 5-fold and 10-point serial dilutions with HPK1 kinase assay buffer. The HPK1 kinase assay buffer contained 40 mM Tris, pH 7.5; 20 mM MgCl2, 0.1 mg/ml BSA, and 50 μM DTT. 7.5 ng/μl of Active HPK1 (Promega, V4098) and 0.1 μg/ml MBP substrate protein were added to the reaction system. The final concentration of ATP in the HPK1 kinase reaction system was 10 μM. Serial diluted compounds were transferred to the reaction system and incubated at room temperature for 1 hr. 5 μL of ADP-Glo™ Reagent (Promega, V9101) was added and incubated for 40 min to stop the kinase reaction and deplete the unconsumed ATP. […] The luminescence was measured with a plate-reading luminometer.

Sequence of Mitogen-activated protein kinase kinase kinase kinase 1 (Q92918 whole entry): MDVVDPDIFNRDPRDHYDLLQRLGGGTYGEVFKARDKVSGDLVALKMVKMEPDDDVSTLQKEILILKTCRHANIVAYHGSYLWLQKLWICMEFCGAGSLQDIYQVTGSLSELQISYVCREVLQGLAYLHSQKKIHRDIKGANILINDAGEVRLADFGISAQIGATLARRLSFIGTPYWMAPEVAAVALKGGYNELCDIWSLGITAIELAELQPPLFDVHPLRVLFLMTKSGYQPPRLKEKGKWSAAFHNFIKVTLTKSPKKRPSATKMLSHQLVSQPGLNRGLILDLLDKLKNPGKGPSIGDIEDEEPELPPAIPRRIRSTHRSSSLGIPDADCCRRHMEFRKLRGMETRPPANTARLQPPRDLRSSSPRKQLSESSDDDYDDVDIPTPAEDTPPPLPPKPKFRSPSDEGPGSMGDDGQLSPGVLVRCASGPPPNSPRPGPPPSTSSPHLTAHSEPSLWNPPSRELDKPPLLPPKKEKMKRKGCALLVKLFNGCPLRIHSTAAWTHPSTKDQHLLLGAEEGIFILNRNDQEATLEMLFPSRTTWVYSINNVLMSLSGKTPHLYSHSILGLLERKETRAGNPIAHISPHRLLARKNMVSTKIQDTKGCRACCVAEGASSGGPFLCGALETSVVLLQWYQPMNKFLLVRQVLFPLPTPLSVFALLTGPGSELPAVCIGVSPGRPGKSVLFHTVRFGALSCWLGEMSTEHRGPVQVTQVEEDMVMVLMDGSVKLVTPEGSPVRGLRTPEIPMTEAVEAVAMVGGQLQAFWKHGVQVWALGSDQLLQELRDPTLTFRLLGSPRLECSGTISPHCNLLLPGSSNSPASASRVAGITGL

IC50, < 0.1 µM:
Cn1c(-c2ccncc2F)nc2c(N3CCC[C@H]3CN)c(NC(=O)c3ccnn(-c4c(F)cccc4F)c3=O)ccc21 [US20250122174, Example 43]
Cc1nc2c(N3C[C@@H]4C[C@H]3CN4)c(NC(=O)c3ccc(=O)n(-c4c(F)cccc4F)n3)ccc2n1C [US20250122174, Example 75]
Cc1nc2c(N3CCNC(=O)C3)c(NC(=O)c3ccc(=O)n(-c4c(F)cccc4F)n3)ccc2n1C [US20250122174, Example 83]
Cc1nc2c(N3CC[C@@H](N)C3)c(NC(=O)c3ccc(=O)n(-c4c(Cl)cccc4Cl)n3)ccc2n1C [US20250122174, Example 108]
CC(C)c1nc2c(N3CC[C@H]4NCC[C@H]43)c(NC(=O)c3ccc(=O)n(-c4c(F)cccc4F)n3)ccc2n1C [US20250122174, Example 135]
CC(C)n1ncc2c(N3CCC(N)CC3)c(NC(=O)c3ccc(=O)n(-c4c(F)cccc4F)n3)ccc21 [US20250122174, Example 184]
